Reference: article PMC3804063 (Journal of medicinal chemistry, 2013)
Where “and” joins values, the source holds several entries; their conditions need not be identical. Equal entries are not always repeated. Entries after “also recorded” stand apart in the source; their conditions may differ.

Tests used:
CB1 S7.39A mutation = conditions: cited from earlier work
[1] = biological target: HEK293 cells stably expressing CB2 (Homo sapiens, UniProt P34972); type: cell-based; conditions: 1 µM compound
Chain of HEK293 cells stably expressing CB2 (P34972 whole entry): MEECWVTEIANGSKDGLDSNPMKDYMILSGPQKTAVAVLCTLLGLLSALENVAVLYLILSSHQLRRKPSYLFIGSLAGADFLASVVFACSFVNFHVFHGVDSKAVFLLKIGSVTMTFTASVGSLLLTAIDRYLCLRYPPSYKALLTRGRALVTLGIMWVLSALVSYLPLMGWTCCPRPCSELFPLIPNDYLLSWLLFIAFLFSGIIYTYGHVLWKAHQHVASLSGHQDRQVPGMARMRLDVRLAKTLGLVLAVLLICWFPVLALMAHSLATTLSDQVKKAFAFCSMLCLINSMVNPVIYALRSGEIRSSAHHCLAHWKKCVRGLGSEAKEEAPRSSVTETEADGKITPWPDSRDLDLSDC

[2] = test system: CB2 receptor-transfected Chinese hamster cells; conditions: cited from earlier work
CB2 W5.43(194)Y mutation = conditions: cited from earlier work
CB2 W5.43A/F mutations = conditions: suggesting a misfolded protein; cited from earlier work
CB2 S4.53(161)A mutation = conditions: cited from earlier work
CB2 S4.57(165)A mutation = conditions: cited from earlier work
human CB2 receptors = human CB2 receptors (Homo sapiens, UniProt P34972); type: binding; conditions: ratio of Ki to Ki of 1
Chain of human CB2 receptors (P34972 whole entry): as above

Compound | antagonism of CP55940 effect in the cAMP assay [1] | fold loss of CB2 affinity compared to 1 (human CB2 receptors) | further results
CCCCCCC(C)(C)c1ccc([C@@H]2C[C@H](O)CC[C@H]2CCCO)c(O)c1 [CP-55,940] | – | – | effect of mutation on binding (CB1 S7.39A mutation): loss of binding
Cc1ccc(Cn2nc(C(=O)N[C@@H]3C(C)(C)[C@@H]4CC[C@@]3(C)C4)cc2-c2ccc(Cl)c(C)c2)cc1 [Compound 1, N-[(1S)-endo-1,3,3-trimethylbicyclo[2.2.1]heptan2-yl]-5-(4-chloro-3-methylphenyl)-1-[(4-methylphenyl)methyl]-1H-pyrazole-3-carboxamide] | antagonize the effects of CP-55,940; also recorded: antagonize the cAMP effects of CP55940 | – | effect on high constitutive activity of CB2 [2]: inverse agonist; effect of mutation on binding (CB2 W5.43(194)Y mutation): decrease in the binding; effect of mutation on binding (CB2 W5.43A/F mutations): no detectable binding; effect of mutation on binding (CB2 S4.53(161)A mutation): abolished the binding; effect of mutation on binding (CB2 S4.57(165)A mutation): abolished the binding
Cc1ccc(Cn2nc(/C=C/[C@@H]3C(C)(C)[C@@H]4CC[C@@]3(C)C4)cc2-c2ccc(Cl)c(C)c2)cc1 [Compound 2, 5-(4-Chloro-3-methylphenyl)-1-(4-methyl-benzyl)-3-[(E)-2-endo-(1,3,3-trimethyl-bicyclo[2.2.1]hept-2-yl)-vinyl]-1H-pyrazole] | lack antagonist properties | 236 fold | –
Cc1ccc(Cn2cc(C(=O)N[C@@H]3C(C)(C)[C@@H]4CC[C@@]3(C)C4)cc2-c2ccc(Cl)c(C)c2)cc1 [Compound 3, 5-(4-Chloro-3-methyl-phenyl)-1-(4-methyl-benzyl)-1H-pyrrole-3-carboxylic acid (1,3,3-trimethyl-bicyclo[2.2.1]hept-2-yl)-amide] | more potent CB2 antagonist than 1; also recorded: antagonize the cAMP effects of CP55940 | 7 fold and 6.8 fold | –
Cc1ccc(Cn2cc(/C=C/[C@@H]3C(C)(C)[C@@H]4CC[C@@]3(C)C4)cc2-c2ccc(Cl)c(C)c2)cc1 [Compound 4, 5-(4-Chloro-3-methylphenyl)-1-[(4-methylphenyl)methyl]-3-[(E)-2-[(1S,2S,4R)-1,3,3-trimethylbicyclo[2.2.1]heptan-2-yl]ethenyl]-1H-pyrrole] | lack antagonist properties | 547 fold | –
Cc1ccc(Cn2nc(C(=O)N[C@@H]3C[C@@H]4CC[C@@]3(C)C4(C)C)cc2-c2ccc(Cl)c(C)c2)cc1 [Compound 5, 5-(4-Chloro-3-methylphenyl)-1-[(4-methylphenyl)methyl]-N-[(1S,2R,4S)-1,7,7-trimethylbicyclo[2.2.1]heptan-2-yl]-1H-pyrazole-3-carboxamide] | antagonize the cAMP effects of CP55940 | 13 fold | –
Cc1cc(-c2cc(C(=O)N[C@@H]3C(C)(C)[C@@H]4CC[C@@]3(C)C4)nn2-c2ccccc2)ccc1Cl [Compound 6, 5-(4-Chloro-3-methylphenyl)-1-phenyl-N-{1,3,3-trimethylbicyclo[2.2.1]heptan-2-yl}-1H-pyrazole-3-carboxamide] | no antagonism; also recorded: lack antagonist properties | 42 fold | –
CCCCCCC(C)(C)c1cc(O)c2c(c1)OC(C)(C)[C@@H]1CC=C(CO)C[C@@H]21 [HU210] | – | – | effect of mutation on binding (CB1 S7.39A mutation): reduction in binding
